# What was measured:
# [1] = test system: Human colon cancer HT29 cells; assay: In vivo pharmaceutical efficiency comparison of SCP201 with free CPT11, HT29 tumor; design: species or system immunodeficiency mice
# Protocol: (§1) Human colon cancer HT29 cells were implanted subcutaneously at the dorsal muscles of immunodeficiency mice. […] The administration frequency was twice a week and five times in total. The tumor size and weight of each mouse was monitored. The tumor size was measured and calculated according to the formula V=1/2 ab^2, wherein V is the volume of tumor, a is the longest diameter of the tumor, and b is the shortest diameter of the tumor. Human colon cancer Colo205 cells were also tested by the same method described above, except that the mice were divided into 6 groups.
# H460 = assay: MTT assay H460; format: cell-based, human; conditions: Lung, H460, 72 hours
# Protocol: (§2) Various human cancer lines, such as A549, AS2, and H460, were implanted onto multi-well plates and Dulbecco's Modified Eagle Media (high glucose) with 10% of fetal bovine serum and 1% of P/S being added to each well. […] Then a 20 μL of 0.5 mg/ml MTT (3-(4,5-dimethylthiazol-2-yl)-2,5-diphenyltetrazolium bromide) solution was added to each well to start the reaction. After 2 hours, the suspension of each well was removed and DMSO was added into the well to dissolve formazan, which was formed during the reaction. The living cell concentration was then obtained by analyzing the OD570 and OD600 data of each well.
# A549 = assay: MTT assay A549; format: cell-based, human; conditions: Lung, A549, 72 hours
# Protocol: as §2
# AS2 = assay: MTT assay AS2; format: cell-based, human; conditions: Lung, AS2, 72 hours
# Protocol: as §2
# Colo 205 = assay: MTT assay Colo 205; format: cell-based, human; conditions: Colorectal, Colo 205, 72 hours
# Protocol: as §2
# OVCAR-3 = assay: MTT assay OVCAR-3; format: cell-based, human; conditions: Ovarian, OVCAR-3, 72 hours
# Protocol: as §2
# [2] = test system: Human colon cancer HT29 cells; assay: In vivo pharmaceutical efficiency comparison of CCP201 with free CPT11, HT29 tumor; design: species or system immunodeficiency mice
# Protocol: Human colon cancer HT29 cells were implanted subcutaneously at the dorsal muscles of immunodeficiency mice. […] The administration frequency was twice a week and five times in total. The tumor size and weight of each mouse was monitored. The tumor size was measured and calculated according to the formula V=½ ab^2, wherein V is the volume of the tumor, a is the longest diameter of the tumor, and b is the shortest diameter of the tumor.
# SCC-25 = assay: MTT assay SCC-25; format: cell-based, human; conditions: Tongue, SCC-25, 72 hours
# Protocol: as §2
# [3] = test system: Human colon cancer Colo205 cells; assay: In vivo pharmaceutical efficiency comparison of SCP201 with free CPT11, Colo205 tumor; design: species or system immunodeficiency mice
# Protocol: as §1
# RPMI2650 = assay: MTT assay RPMI2650; format: cell-based, human; conditions: Nasalseptum, RPMI2650, 72 hours
# Protocol: as §2
# HT29 = assay: MTT assay HT29; format: cell-based, human; conditions: Colorectal, HT29, 72 hours
# Protocol: as §2
# [4] = dose 10 mg/kg, total dose 50 mg/kg
# [5] = dose 40 mg/kg, total dose 200 mg/kg
smiles,measurement,setting,value
"CCc1c2c(nc3ccc(OC(=O)N4CCC(N5CCCCC5)CC4)cc13)-c1cc3c(c(=O)n1C2)COC(=O)[C@]3(O)CC [CPT11, 7-ethyl-10-[4-(1-piperidino)-1-piperidono]carbonyloxy camptothecin]",Tumor Size (mm^3) Vol.,"[1]; day 0, 10 mg/kg",142.8 mm^3
same,Tumor Size (mm^3) Vol.,"[1]; day 3, 10 mg/kg",227.8 mm^3
same,Tumor Size (mm^3) Vol.,"[1]; day 6, 10 mg/kg",292.7 mm^3
same,Tumor Size (mm^3) Vol.,"[1]; day 9, 10 mg/kg",384.2 mm^3
same,Tumor Size (mm^3) Vol.,"[1]; day 12, 10 mg/kg",492.0 mm^3
same,Tumor Size (mm^3) Vol.,"[1]; day 15, 10 mg/kg",666.0 mm^3
same,Tumor Size (mm^3) Vol.,"[1]; day 18, 10 mg/kg",853.5 mm^3
same,Tumor Size (mm^3) Vol.,"[1]; day 21, 10 mg/kg",997.7 mm^3
same,Tumor Size (mm^3) Vol.,"[1]; day 24, 10 mg/kg",1308.5 mm^3
same,Tumor Size (mm^3) Vol.,"[1]; day 27, 10 mg/kg",1732.2 mm^3
same,Maximum weight loss,[1]; [4],27 days
same,Maximum weight loss %,[1]; [4],9.4%
same,TIR % (day 21),[1]; [4],23%
same,IC50,H460,1890 ± 140 µg/mL
same,IC50,A549,13340 ± 1330 µg/mL
same,IC50,AS2,4200 ± 480 µg/mL
same,IC50,Colo 205,6840 ± 990 µg/mL
same,IC50,OVCAR-3,16750 ± 1430 µg/mL
same,Tumor Size (mm^3) Vol.,"[2]; day 0, 10 mg/kg",469.6 mm^3
same,Tumor Size (mm^3) Vol.,"[2]; day 4, 10 mg/kg",745.8 mm^3
same,Tumor Size (mm^3) Vol.,"[2]; day 8, 10 mg/kg",723.4 mm^3
same,Tumor Size (mm^3) Vol.,"[2]; day 11, 10 mg/kg",740.8 mm^3
same,Tumor Size (mm^3) Vol.,"[2]; day 13, 10 mg/kg",786.0 mm^3
same,Tumor Size (mm^3) Vol.,"[2]; day 15, 10 mg/kg",757.5 mm^3
same,Tumor Size (mm^3) Vol.,"[2]; day 18, 10 mg/kg",879.8 mm^3
same,Tumor Size (mm^3) Vol.,"[2]; day 20, 10 mg/kg",902.7 mm^3
same,Tumor Size (mm^3) Vol.,"[2]; day 22, 10 mg/kg",927.3 mm^3
same,Tumor Size (mm^3) Vol.,"[2]; day 27, 10 mg/kg",1217.6 mm^3
same,Maximum weight loss,[2]; [4],27 days
same,Maximum weight loss %,[2]; [4],17.3%
same,TIR % (day 21),[2]; [4],35%
same,IC50,SCC-25,12350 ± 1160 µg/mL
same,Tumor Size (mm^3) Vol.,"[3]; day 0, 40 mg/kg",152.1 mm^3
same,Tumor Size (mm^3) Vol.,"[3]; day 1, 10 mg/kg",175.1 mm^3
same,Tumor Size (mm^3) Vol.,"[3]; day 1, 40 mg/kg",184.6 mm^3
same,Tumor Size (mm^3) Vol.,"[3]; day 3, 10 mg/kg",192.0 mm^3
same,Tumor Size (mm^3) Vol.,"[3]; day 3, 40 mg/kg",239.3 mm^3
same,Tumor Size (mm^3) Vol.,"[3]; day 6, 10 mg/kg",215.0 mm^3
same,Tumor Size (mm^3) Vol.,"[3]; day 6, 40 mg/kg",215.0 mm^3
same,Tumor Size (mm^3) Vol.,"[3]; day 8, 10 mg/kg",251.2 mm^3
same,Tumor Size (mm^3) Vol.,"[3]; day 8, 40 mg/kg",184.7 mm^3
same,Tumor Size (mm^3) Vol.,"[3]; day 10, 10 mg/kg",262.1 mm^3
same,Tumor Size (mm^3) Vol.,"[3]; day 10, 40 mg/kg",161.7 mm^3
same,Tumor Size (mm^3) Vol.,"[3]; day 13, 10 mg/kg",263.5 mm^3
same,Tumor Size (mm^3) Vol.,"[3]; day 13, 40 mg/kg",110.2 mm^3
same,Tumor Size (mm^3) Vol.,"[3]; day 15, 10 mg/kg",274.1 mm^3
same,Tumor Size (mm^3) Vol.,"[3]; day 15, 40 mg/kg",70.9 mm^3
same,Tumor Size (mm^3) Vol.,"[3]; day 17, 10 mg/kg",293.7 mm^3
same,Tumor Size (mm^3) Vol.,"[3]; day 17, 40 mg/kg",59.1 mm^3
same,Tumor Size (mm^3) Vol.,"[3]; day 20, 10 mg/kg",301.4 mm^3
same,Tumor Size (mm^3) Vol.,"[3]; day 20, 40 mg/kg",37.8 mm^3
same,Maximum weight loss %,[3]; [4],4.2%
same,Maximum weight loss (day),[3]; [4],(18) day
same,TIR % (day 20),[3]; [4],61%
same,Maximum weight loss %,[3]; [5],3.7%
same,Maximum weight loss (day),[3]; [5],(8) day
same,TIR % (day 20),[3]; [5],95%
same,IC50,RPMI2650,1470 ± 260 µg/mL
same,IC50,HT29,1900 µg/mL
